Assay results reported in ChEMBL document CHEMBL6127035, “Novel pyridazinone derivatives bind to KSRP: Synthesis, anti-tumor biological evaluations and modelling insights” (Eur J Med Chem, 2024).
Calls of active or inactive are those of the source. No cut-off for these calls is given here.

Columns and labels:
KB = experiment: Antiproliferative activity against human KB cells assessed as reduction in cell viability incubated for 2 days by MTT assay; format: functional, cell-based; conditions: 48 h
MCF7 [1] = experiment: Induction of apoptosis in human MCF7 cells assessed as early apoptotic cells at 1.25 uM incubated for 48 hrs by Annexin V-FITC/PI staining based flow cytometric analysis (reference value: 5.12 %); format: functional
MCF7 [2] = experiment: Antiproliferation against human MCF7 cells assessed as effect on cell proliferation at 0.625 uM incubated for 2 days by MTT assay; format: functional, cell-based; conditions: time 2.0 day
MCF7 [3] = experiment: Induction of apoptosis in human MCF7 cells assessed as early apoptotic cells at 0.62 uM incubated for 48 hrs by Annexin V-FITC/PI staining based flow cytometric analysis (reference value: 5.12 %); format: functional
MCF7 [4] = experiment: Induction of apoptosis in human MCF7 cells assessed as late apoptotic cells at 1.25 uM incubated for 48 hrs by Annexin V-FITC/PI staining based flow cytometric analysis (reference value: 4.32 %); format: functional
MCF7 [5] = experiment: Antiproliferative activity against human MCF7 cells assessed as reduction in cell viability incubated for 2 days by MTT assay; format: functional, cell-based; conditions: MCF7, 48 h
MDA-MB-231 [6] = experiment: Antiproliferative activity against human MDA-MB-231 cells assessed as reduction in cell viability incubated for 2 days by MTT assay; format: functional, cell-based; conditions: MDA-MB-231, 48 h
Mitochondrial membrane = experiment: Induction of mitochondrial membrane potential loss in human MCF7 cells assessed as increase in green fluorescence at 10 uM incubated for 24 hrs by JC-1 staining based automated microscopic immunofluorescence analysis; format: cell membranes
MCF7 [7] = experiment: Induction of apoptosis in human MCF7 cells assessed as viable cells at 1.25 uM incubated for 48 hrs by Annexin V-FITC/PI staining based flow cytometric analysis (reference value: 89.3 %); format: functional; conditions: read-out: Activity
NCI-H460 = experiment: Antiproliferative activity against human NCI-H460 cells assessed as reduction in cell viability incubated for 2 days by MTT assay; format: functional, cell-based; conditions: NCI-H460, 48 h
MDA-MB-231 [8] = experiment: Inhibition of colony formation in human MDA-MB-231 cells assessed as reduction in colony count incubated for 2 weeks by crystal violet staining based analysis; format: functional, cell-based
U-87 MG = experiment: Antiproliferative activity against human U-87 MG cells assessed as reduction in cell viability incubated for 2 days by MTT assay; format: functional, cell-based, U-87MG ATCC; conditions: 48 h
MCF7 [9] = experiment: Inhibition of cell migration in human MCF7 cells assessed as reduction in wound healing index at 0.625 uM measured after 72 hrs by scratch assay; format: functional, cell-based
MCF7 [10] = experiment: Induction of morphological changes in human MCF7 cells assessed as cell membrane blebbing at 10 uM measured after 6 hrs by bright field microscopic; format: functional, cell-based
MCF7 [11] = experiment: Induction of apoptosis in human MCF7 cells assessed as viable cells at 2.5 uM incubated for 48 hrs by Annexin V-FITC/PI staining based flow cytometric analysis (reference value: 89.3 %); format: functional; conditions: read-out: Activity
A549 = experiment: Antiproliferative activity against human A549 cells assessed as reduction in cell viability incubated for 2 days by MTT assay; format: functional, cell-based; conditions: A549, 48 h
[12] = Acute toxicity in BALB/c nu/nu mouse assessed as mortality rate at 30 mg/kg, ip administered for 7 days relative to control; format: organism-based; conditions: in vivo, time 7 day
[13] = Cytotoxicity against human L02 cells assessed as reduction in cell viability incubated for 2 days by MTT assay; format: toxicity, cell-based
MCF7 [14] = experiment: Induction of apoptosis in human MCF7 cells assessed as necrotic cells at 0.62 uM incubated for 48 hrs by Annexin V-FITC/PI staining based flow cytometric analysis (reference value: 1.22 %); format: functional
MCF7 [15] = experiment: Induction of apoptosis in human MCF7 cells assessed as late apoptotic cells at 2.5 uM incubated for 48 hrs by Annexin V-FITC/PI staining based flow cytometric analysis (reference value: 4.32 %); format: functional
MCF7 [16] = experiment: Induction of DNA double-strand breaks in human MCF7 cells assessed as increase in gamma-H2AX foci formation at 10 uM incubated for 24 hrs by […] fluorescence microscopic analysis; format: functional, cell-based
HCT-116 = experiment: Antiproliferative activity against human HCT-116 cells assessed as reduction in cell viability incubated for 2 days by MTT assay; format: functional, cell-based; conditions: HCT-116, 48 h
4T1 = experiment: Antiproliferative activity against mouse 4T1 cells assessed as reduction in cell viability incubated for 2 days by MTT assay; format: functional, cell-based; conditions: 4T1, 48 h
MCF7 [17] = experiment: Induction of apoptosis in human MCF7 cells assessed as early apoptotic cells at 2.5 uM incubated for 48 hrs by Annexin V-FITC/PI staining based flow cytometric analysis (reference value: 5.12 %); format: functional
MCF7 [18] = experiment: Induction of DNA double-strand breaks in human MCF7 cells assessed as appearance of nuclear fragments at 10 uM incubated for 24 hrs by Hoechst 33342 staining based fluorescence microscopic analysis; format: functional, cell-based
MCF7 [19] = experiment: Inhibition of colony formation in human MCF7 cells assessed as reduction in colony count incubated for 2 weeks by crystal violet staining based analysis; format: functional, cell-based; conditions: dose 1.25-2.5 µM
MCF7 [20] = experiment: Induction of ROS accumulation in human MCF7 cells assessed as increase in green fluorescence at 5 uM incubated for 24 hrs by DCFH-DA staining based automated microscopic immunofluorescence analysis; format: functional, cell-based
MIA PaCa-2 = experiment: Antiproliferative activity against human MIA PaCa-2 cells assessed as reduction in cell viability incubated for 2 days by MTT assay; format: functional, cell-based; conditions: MIA PaCa-2, 48 h
MCF7 [21] = experiment: Induction of apoptosis in human MCF7 cells assessed as necrotic cells at 2.5 uM incubated for 48 hrs by Annexin V-FITC/PI staining based flow cytometric analysis (reference value: 1.22 %); format: functional
MDA-MB-231 [22] = experiment: Inhibition of cell migration in human MDA-MB-231 cells assessed as reduction in wound healing index measured after 72 hrs by scratch assay; format: functional, cell-based
MCF7 [23] = experiment: Induction of apoptosis in human MCF7 cells assessed as necrotic cells at 1.25 uM incubated for 48 hrs by Annexin V-FITC/PI staining based flow cytometric analysis (reference value: 1.22 %); format: functional
MCF7 [24] = experiment: Induction of apoptosis in human MCF7 cells assessed as viable cells at 0.62 uM incubated for 48 hrs by Annexin V-FITC/PI staining based flow cytometric analysis (reference value: 89.3 %); format: functional; conditions: read-out: Activity
MCF7 [25] = experiment: Induction of DNA double-strand breaks in human MCF7 cells assessed as increase in gamma-H2AX expression incubated for 24 hrs by Western blotting; format: functional, cell-based
MCF7 [26] = experiment: Induction of apoptosis in human MCF7 cells assessed as late apoptotic cells at 0.62 uM incubated for 48 hrs by Annexin V-FITC/PI staining based flow cytometric analysis (reference value: 4.32 %); format: functional
MCF7 [27] = experiment: Induction of DNA double-strand breaks in human MCF7 cells assessed as enlarged nucleus at 10 uM incubated for 24 hrs by Hoechst 33342 staining based fluorescence microscopic analysis; format: functional, cell-based

For `CN(C)CCN(C)S(=O)(=O)c1ccc(-n2ncc(Cl)c(Cl)c2=O)cc1`, the IC50 (KB) was 220 nM, the Activity (MCF7 [1]) was 9.53% and the Activity (MCF7 [2]) was “inactive”. For the same compound, the Activity (MCF7 [3]) was 8.46%, the Activity (MCF7 [4]) was 5.47% and the IC50 (MCF7 [5]) was 3790 nM. For the same compound, the IC50 (MDA-MB-231 [6]) was 9160 nM, the Activity (Mitochondrial membrane) was “Active” and the viability at 1.25 µM (MCF7 [7]) was 83.5%. The IC50 (NCI-H460) was 530 nM, the inhibition (MDA-MB-231 [8]) was “Active” and the IC50 (U-87 MG) was 360 nM. For the same compound, the inhibition (MCF7 [9]) was “Active”, the Activity (MCF7 [10]) was “Active” and the viability at 2.5 µM (MCF7 [11]) was 75.3%. For the same compound, the IC50 (A549) was 1000 nM, the mortality at 168 h [12] was 100% and the IC50 at 2 days [13] was 4970 nM. For the same compound, the Activity (MCF7 [14]) was 1.3%, the Activity (MCF7 [15]) was 6.94% and the Activity (MCF7 [16]) was “Active”. It also gave an IC50 (HCT-116) of 670 nM, an IC50 (4T1) of 1150 nM and an Activity (MCF7 [17]) of 17%. The Activity (MCF7 [18]) was “Active”, the inhibition (MCF7 [19]) was “Dose-Dependent Effect” and the Activity (MCF7 [20]) was “Active”. For the same compound, the IC50 (MIA PaCa-2) was 390 nM, the Activity (MCF7 [21]) was 0.71% and the inhibition (MDA-MB-231 [22]) was “Active”. For the same compound, the Activity (MCF7 [23]) was 1.48%, the viability at 0.62 µM (MCF7 [24]) was 85.5% and the Activity (MCF7 [25]) was “Dose-Dependent Effect”. The Activity (MCF7 [26]) was 4.7% and the Activity (MCF7 [27]) was “Active”.
